Legend:
Type in all cases: in vivo
[1] = system: scopolamine-induced amnesic mice; assay: Modified Y-maze test; conditions: i.p. 1 h before, scopolamine 1 mg/kg, doses as in the sentence
Procedure: The modified Y-maze test was performed to evaluate spatial working memory. The experiment was divided into 3 sessions; (i) IND8 at 5, 10, and 50 μmol/kg or 1.5, 2.9, and 14.7 mg/kg doses, (ii) QND8 at 5, 10, and 50 μmol/kg or 1.4, 2.7, 13.5 mg/kg doses, and (iii) IND8 and QND8 at dose of 25 μmol/kg or 7.3 and 6.8 mg/kg, respectively and PNU-282987 at […] or 3, 10 mg/kg doses.
FIG. 21 illustrates the percentage of unfamiliar arm exploration in modified Y-maze of IND8 (FIG. 21A), QND8 (FIG. 21B), and IND8, QND8, PNU-282987 (FIG. 21C). IND8, QND8, PNU-282987, vehicle (15% Tween80, SH) and tacrine (TC) were injected 1 h and scopolamine (SC) 30 min before sample phase, respectively. Each mouse was placed at the end of one arm and allowed to access 2 arms of Y-maze for 5 min in sample phase. After a 30 min period, the mouse was allowed to explore 3 arms for 5 min. The number of entries for each arm was recorded and the percentage of unfamiliar arm exploration was calculated. Data represented in means±standard errors (SE).
Male ICR mice (6-weeks of age) were housed in 5 per cage with free access to food and tap water under 12 h light and dark cycle (light on 6:00 to 18:00) in a temperature and humidity controlled room. They were acclimated in a laboratory at least 7 days prior to starting experiments. The experimental protocols were approved by the Animal Care and Use Committee of KhonKaen University, Thailand.
Tacrine hydrochloride (Sigma-Aldrich, St. Louis, Mo.), PNU-282987 hydrochloride (Alamone, Jerusalem, Israel) and test compounds were prepared as suspensions by using 15% tween 80 in distilled water as a vehicle, whereas scopolamine hydrochloride (Sigma-Aldrich, St. Louis, Mo.) and methyllycaconitine citrate (MLA) (Abcam, Cambridge, England) were prepared as a solution by dissolving with 0.9% normal saline solution (NSS). All compounds were administered by intraperitoneal (i.p.) injection in the amount of 5 mL/kg. Test compounds were injected 1 h and scopolamine was administered 30 min before the experiments, whereas MLA was injected 5 min before the test compounds.
(§1) Amnesia was induced pharmacologically in mice via scopolamine injection (single dose) for 30 min prior to start the experiments. They were divided into vehicle group: receiving 15% tween 80 and 0.9% NSS, amnesia group: receiving scopolamine 1 mg/kg, standard positive control group receiving tacrine 1 mg/kg, and test group: receiving IND8, QND8 at dose 5, 10, 25, 50 μmol/kg, or PNU-282987 3, 10 mg/kg, single dose. All mice were acclimated in an experimental room at least 30 min before the experiments.
The maze in this experiment is the same apparatus using in locomotor activity test except there is the black partition to close one of three arms. The mice were randomly separated into different treatment groups. They were injected with test compounds and scopolamine at 1 h and 30 min, respectively, before the sample phase. In this phase which one arm of Y-maze was closed by the black partition, each mouse was placed at the end of one arm and allowed to move through 2 arms for 5 min to get familiar with the two opened arms. After 30 min of resting, all arms were opened and the mouse was allowed to move freely through all 3 arms. The maze area and the partition were cleaned with 70% ethanol between each experiment to remove olfactory cues. The number of entries in each arm was counted visually if mice accessed into each arm at least 10 cm. The percentage of unfamiliar arm exploration was calculated as following equation: […]

[2] = system: scopolamine-induced amnesic mice; assay: Object recognition test (ORT); conditions: i.p., tacrine 1 mg/kg, IND8, QND8 10 and 50 μmol/kg
Procedure: FIG. 22 illustrates exploration time to familiar (F) and novel (N) objects of IND8 (A) and QND8 (B) in test phase of ORT. Each mouse was allowed to explore an open field apparatus for 5 min in a habituation phase. After a 24 h period, IND8, QND8, PNU-282987, vehicle (15% Tween80, SH) and tacrine (TC) were injected 1 h and scopolamine (SC) 30 min before sample phase, respectively. Each mouse explored 2 identical objects in the sample phase for 5 min and then placed in its cage for 10 min before the test phase began. In the 5 min of test phase, one of the objects was changed to a new one. The exploration time of these objects was recorded.
In both data sets, a discrimination index (DI) was calculated and used to evaluate the ability of mice to discriminate between familiar and novel objects. Data are represented in FIG. 23.
as §1
The apparatus was made of black polyvinyl chloride (52×52×40 cm). The objects used in this experiment had different visual shapes and colors to be discriminated. They were placed 10 cm from the side wall in the balanced manner. The box area and objects were cleaned with 70% ethanol between each experiment to remove odor cues.
The mice were randomly divided into different treatment groups. They were allowed to freely explore the open field apparatus for 5 min for habituation in the day prior to the experiments to get familiar with the apparatus. On the experimental day, test compounds injected 1 h, whereas scopolamine administered 30 min before the sample phase (acquisition trial). The mice were placed in the apparatus to explore 2 identical objects. After 10 min of acclimation in their cages, one object was changed to a new one, and mice were allowed to explore these objects for 5 min in the test phase (retention trial). The exploration time of each object was recorded if the nose of mice approached the objects within 3 cm or touched the objects. The discrimination index (DI) was calculated by using (TN−TF)/(TN+TF); TN and TF represented exploration time of new and familiar objects, respectively.

[3] = system: scopolamine-induced amnesic mice; assay: Water maze test; conditions: i.p., IND8 25 and 50 μmol/kg, QND8 25 μmol/kg
Procedure: The water maze test, a model for spatial learning and reference memory, related to function in the hippocampus, was also used as a study model in which mice locate a hidden platform after training session. Mice were trained to locate a hidden platform until a steady state measured by a shortened escape latency time was reached.
The average swimming time in a target quadrant where the platform had previously been placed was measured in the test day, day 8 (FIG. 25).
FIG. 25 illustrates the average swimming time in the target quadrant of water maze test. Data are presented in means±SE. IND8, QND8, PNU-282987, vehicle (15% Tween80, SH) and tacrine (TC) were injected 1 h and scopolamine (SC) 30 min before testing, respectively.
A black circular tank (diameter 70 cm; height 28 cm) was divided into 4 quadrants with a removable escape platform (6×7.5×14 cm) centered in a target quadrant. The tank was filled with water to 15 cm height and the platform was located 1 cm below the water surface.
Mice were trained from 5-7 days to get the steady state of escape latency. During day 1 to 5, each mouse was trained to swim from each quadrant with 1 min maximum time and allowed to stay on the platform for 10 sec. The mouse is placed on the platform for 10 s if it cannot find the hidden platform within 1 min. The escape latency time from each quadrant was measured. […] The probe test began when the escape latency time reached the steady state. The platform was removed and time spent in the target quadrant was measured. On the next day, all conditions were the same as probe test, but the platform was brought back to remind the mice of the target quadrant location. All mice were injected with test compounds 1 h and scopolamine 30 min before testing. The swimming time in the target quadrant was measured.

SMILES: Nc1c2c(nc3ccccc13)CCCC2 [Tacrine, reference compound]
- Unfamiliar arm exploration / cognitive deficit, modified Y-maze vs scopolamine-treated group [1]: reversed the cognitive deficit induced by scopolamine
- Unfamiliar arm exploration / cognitive deficit, modified Y-maze vs scopolamine-treated group ([1]; listed as tacrine): can improve cognitive deficits induced by scopolamine in all test models
- Discrimination index / episodic short-term memory, ORT vs scopolamine-treated group [2]: significantly improved episodic short-term memory
- Discrimination index / episodic short-term memory, ORT vs scopolamine-treated group ([2]; listed as tacrine): can improve cognitive deficits induced by scopolamine in all test models
- Time in target quadrant, water maze vs scopolamine-treated group [3]: significantly improved cognitive deficits
- Time in target quadrant, water maze vs scopolamine-treated group ([3]; listed as tacrine): can improve cognitive deficits induced by scopolamine in all test models

Reference: US20180244653A1, “SELECTIVE ALPHA-7 NICOTINIC RECEPTOR AGONISTS AND METHODS FOR MAKING AND USING THEM” (THE REGENTS OF THE UNIVERSITY OF CALIFORNIA, priority 2015, published 2018)
